Test system: Gram-negative and Gram-positive organisms (clinical isolates)
Test: Broth microdilution MIC against clinical isolates (CLSI M7-A8), Table 9
Type: cell-based

CN(C)c1cc(NC(=O)CNC(C)(C)C)c(O)c2c1C[C@H]1C[C@H]3[C@H](N(C)C)C(O)=C(C(N)=O)C(=O)[C@@]3(O)C(O)=C1C2=O [Tigecycline, tigecycline]
MICs against tetracycline resistant isolates relative to tetracycline susceptible isolates: not notably altered
